Assay results: US20260165968A1, “SUSTAINED-RELEASE PLGA MICROSPHERE CONTAINING GS-441524, AND METHOD FOR PRODUCING SAME” (THE INDUSTRY & ACADEMIC COOPERATION IN CHUNGNAM NATIONAL …, priority 2022, published 2026)
Like-named read-outs stand apart in the source and are kept apart here.

Tests used:
[1] = Pharmacokinetic evaluation after subcutaneous injection into rats; type: in vivo
Procedure: The pharmacokinetic evaluation of the GS-441524-containing PLGA microspheres of Example F3 according to the disclosure was carried out. Rats as test animals were randomly divided into test and control groups, with 5 animals in each group, and raised under the same conditions while predetermined amounts of solid food and water were supplied for 7 days. The rats were fasted for 12 hours before testing, and then used for testing.
The test group was subcutaneously administered GS-441524 at a dose corresponding to 28 mg/kg by using the PLGA microspheres of Example F3 of the disclosure, and the control group was subcutaneously administered 28 mg/kg GS-441524 alone. Approximately 300 μL of blood was collected by retro-orbital bleeding 1, 2, 4, 8, 12, 24, 48, 72, 96, 120, and 144 hours after the subcutaneous injection to the rats. Each of the obtained samples was centrifuged at 15,000 rpm for 5 minutes to separate the plasma, and then stored at −70° C. before analysis.
Plasma sample pre-treatment was performed using a deproteination method. After 100 μL of a plasma sample was taken, 200 μL of methanol (the internal standard substance 10 ng/MI verapamil) was added thereto, followed by mixing for 10 minutes and then extraction. The extract was centrifuged at 17,000 rpm for 10 minutes, and then the supernatant was collected and analyzed using LC-MS/MS to quantify GS-441524 in the blood.

[2] = in humans; cited from earlier work
[3] = rat, plasma, sc, 28 mg/kg GS-441524

Cl ([1]; 28 mg/kg GS-441524): 17.32 ± 9.32 mL/min/kg
Vz ([1]; 28 mg/kg GS-441524): 81.261 ± 84.077 L/kg
Cmax [1, 3]: 8170 ± 4080 ng/mL
half-life [1, 3]: 61.5 ± 66.2 h
AUC(0-t) ([1]; rat, plasma, sc, 28 mg/kg GS-441524, read-out: AUC0→144): 31600 ± 14300 ng·h/mL
Compound: N#C[C@@]1(c2ccc3c(N)ncnn23)O[C@H](CO)[C@@H](O)[C@H]1O [GS-441524, (2R,3R,4S,5R)-2-(4-aminopyrrolo[2,1-f][1,2,4]triazin-7-yl)-3,4-dihydroxy-5-(hydroxymethyl) oxolane-2-carbonitrile]
half-life [2]: about 24 hours
